Laboratory results published in patent US4621077A, “Pharmacologically active biphosphonates, process for the preparation thereof and pharmaceutical compositions therefrom” (Istituto Gentili S.p.A., priority 1982, dated 1986).
Where “and” joins values, the source holds several entries; their conditions need not be identical. Identical values can stand only once. Like-named read-outs stand apart in the source and are kept apart here.

What was measured:
[1] = tested on: skull cells (lactate production); experiment: cells; type: cell-based, Wistar rats; details: Rattus norvegicus, 16 h, read-out: Effect on the production of lactate ± S.E.M.
Protocol: (§1) Cellular culture: the cells are cultured according to the method described by Fast et al, (Biochem. J. 172, 97-107 (1978)). By way of summary, the skulls removed from Wistar rats, one day old, are digested with collagenase. The cells set free are placed on a plate with concentration of 200,000 cells per cc of medium in disks "clusters" suitable for culture, the plates having 24 wells of 1.6 cm in diameter containing 0.5 cc of medium. The cells are cultivated in the essential minimum medium containing 10% of foetal calf serum in an atmosphere of 5% CO2 at 37° up to the eighth day. The bisphosphonates are added on the first day up to the end of the experiment. The medium is changed on the first, fourth and seventh day.
On the seventh day, the medium is changed and the cells are incubated for 16 hours. The lactate produced during this period is measured in an extract in HClO4 of the medium using lactatodehydrogenase.

[2] = tested on: inhibition of the bone reabsorption
[3] = tested on: patients with Paget's disease
Protocol: (§2) The substance ABDP, aminobutanediphosphonate has been used for venous infusion, 0.5-25 mg/day dissolved in 500 cc of 5% glucose solution in the following conditions: […]

[4] = tested on: patients with widespread neoplastic osteolysis; details: six patients, 4 mg/day
Protocol: as §2

[5] = tested on: bone reabsorption (metaphyseal bone density); experiment: Metaphyseal bone density / inhibition of bone reabsorption in rats treated for 7 days; type: in vivo; details: for metaphysical density: 7 days, rats
[6] = tested on: patients with primary hyperparathyroidism
Protocol: The substance ABDP, aminobutanediphosphonate has been used for venous infusion, 0.5-25 mg/day dissolved in 500 cc of 5% glucose solution in the following conditions:
Eight individuals having different degrees of calcemia varying to the extent of 17-11 mg%, were treated.

[7] = tested on: patients with tumoral osteolysis
skull cells = experiment: cells; type: cell-based, Wistar rats; details: Rattus norvegicus, read-out: Effect on the cellular number ± S.E.M.
Protocol: as §1
The cells are counted with a Coulter counter after they have been set free from the disks by digestion with a mixture of collagenase and trypsin.

injection sites / skin = experiment: Necrosis at the injection sites in rats (local skin toxicity)
Excerpt: The symbol "x" represents a conventional score, that is "x" meand slight necrosis, "xx" means severe necrosis, "xxx" means very severe necrosis.

[8] = tested on: patients with tumoral osteolysis; details: comparison stated for other bisphosphonates, no own test shown; cited from earlier work
Solubility in water = type: physicochemical
[9] = two patients, 50 mg, three days

## NCCCC(O)(P(=O)(O)O)P(=O)(O)O [AHBU BP, 4-amino-1-hydroxybutan-1,1-biphosphonic acid]
[1]
  activity at 2.5 µM: 88 ± 1.5%
  activity at 25 µM: 79.6 ± 4.1%
  activity at 250 µM: 180 ± 18.6%
[2]; clinical, overall conclusion
  times more active than Cl2 MDP (inhibition of the bone reabsorption): 100-300 times
[2]; detailed observations in comparison not available yet
  activity on the immunity system: the activity on the immunity system appears to be peculiar to ABDP
[3]; after 6-8 months
  hydroxyprolinuria and alkaline phosphatemia at follow-up: normal values of hydroxyprolinuria and alkaline phosphatemia
[3]; three patients, 4 mg or 0.5 mg per day
  alkaline phosphatemia: gradual decrease up to normal values after 3-4 months of therapeutic cycle
[4]
  days of treatment after which painful bone symptoms decreased: 5 to 8 days
[4]; two weeks
  calciuria: normalization of calciuria
[4]; in five days
  decrease of hydroxyprolinuria: 50-80%
[5]; in vivo in rats
  times superior activity versus AHPrBP (inhibition of bone reabsorption): about 100 times
[6]; comparison in patients with primary hyperparathyroidism, Cl2 MDP data from Adami et al, 1983
  times more active than Cl2 MDP: 20-100 times
[6]; four patients, 4-8 mg/day, 3-4 days
  calcemia and hydroxyprolinuria: the decrease of calcemia has been transitory, with the values of calcemia and the hydroxyprolinuria having a tendency to return to the basal values a few days after the suspension of the drug
[6]; one case with border line calcemia, 4 mg/day for four days
  calcemia: has not caused any variation in the calcemia even if it is accompanied by a persistent reduction in the calcemia
[6]; seven patients with very elevated calcemia, venous infusion
  calcemia: a drastic reduction of calcemia was achieved up to normal values in five of the patients
[6]; simultaneous with decrease of calcemia
  hydroxyprolinuria: rapid and parallel decrease of hydroxyprolinuria
[6]; three cases, 25 mg/day for seven days
  calcemia: normalization of calcemia up to the day of surgical intervention
[7]; human, in vivo
  fever after administration: not been followed by fever
[7]; [9]
  effect of treatment: surprisingly every effective
  period of remission of the symptoms: surprisingly long
Skull cells
  activity at 2.5 µM: 100 ± 1.6%
  activity at 25 µM: 101 ± 1.5%
  activity at 250 µM: 74.2 ± 4.7%

## NCCC(O)(P(=O)(O)O)P(=O)(O)O [AHPrBP, 3-amino-1-hydroxypropylidene-1,1-bisphosphonate]
Injection sites / skin; 0.01 mg P/kg, 1 day
  necrosis at the injection sites: .0.
Injection sites / skin; 0.01 mg P/kg, 2 day
  necrosis at the injection sites: .0.
Injection sites / skin; 0.01 mg P/kg, 3 day
  necrosis at the injection sites: .0.
Injection sites / skin; 0.01 mg P/kg, 4 day
  necrosis at the injection sites: .0.
Injection sites / skin; 0.01 mg P/kg, 5 day
  necrosis at the injection sites: .0.
Injection sites / skin; 0.01 mg P/kg, 6 day
  necrosis at the injection sites: .0.
Injection sites / skin; 0.01 mg P/kg, 7 day
  necrosis at the injection sites: .0.
Injection sites / skin; 0.1 mg P/kg, 1 day
  necrosis at the injection sites: .0.
Injection sites / skin; 0.1 mg P/kg, 2 day
  necrosis at the injection sites: .0.
Injection sites / skin; 0.1 mg P/kg, 3 day
  necrosis at the injection sites: .0.
Injection sites / skin; 0.1 mg P/kg, 4 day
  necrosis at the injection sites: .0.
Injection sites / skin; 0.1 mg P/kg, 5 day
  necrosis at the injection sites: .0.
Injection sites / skin; 1 mg P/kg, 1 day
  necrosis at the injection sites: xxx and .0.
Injection sites / skin; 1 mg P/kg, 2 day
  necrosis at the injection sites: xxx and .0.
Injection sites / skin; 1 mg P/kg, 3 day
  necrosis at the injection sites: .0.
Injection sites / skin; 10 mg P/kg, 1 day
  necrosis at the injection sites: xxx
Injection sites / skin; 10 mg P/kg, 2 day
  necrosis at the injection sites: xxx
Injection sites / skin; rat, in vivo
  local / topical skin toxicity, in words: The most toxic substance
[5]; 0.01 mg P/kg s.c., s.c. NaCl controls 29.72
  metaphysical density: 39.53 % volume of calcified tissue
[5]; 0.1 mg P/kg s.c., s.c. NaCl controls 29.72
  metaphysical density: 50.31 % volume of calcified tissue
[5]; 2.0 mg P/kg p.o., p.o. NaCl controls 28.45
  metaphysical density: 33.72 % volume of calcified tissue
[8]
  fever after administration: occurs very frequently

## O=P(O)(O)C(F)(F)P(=O)(O)O [Example 6, trisodium difluoromethanebiphosphonate]
Solubility in water
  solubility in water: soluble in water

## O=P(O)(O)C(F)(F)P(=O)(O)O [Example 8, lysine difluoromethanebiphosphonate]
Solubility in water
  solubility in water: very soluble in water
